# Results from US20180298405A1, “METHODS AND COMPOSITIONS TO INCREASE HUMAN SOMATIC CELL NUCLEAR TRANSFER (SCNT) EFFICIENCY BY REMOVING HISTONE H3-LYSINE TRIMETHYLATION, AND DERIVATION OF HUMAN NT-ESC” (CHILDREN'S MEDICAL CENTER CORPORATION, priority 2015, published 2018).
# Tested on: reprogramming resistant regions (RRRs) / ZGA genes
# Experiment: RNA-seq of late 8-cell human SCNT embryos with or without KDM4A mRNA injection (ZGA of RRRs, KDM4A-responsive genes)
# Assay type: cell-based
# Conditions: KDM4A SCNT 8-cell embryos
# Source text: A sliding window (size 20 kb, step size 10 kb) was used to assess the genome-wide expression level of 4-cell and 8-cell human embryos. For each window, the expression level was quantified with normalized RPM (reads per millions of uniquely mapped reads). […] These activated regions were classed into three groups based on their expression differences in human SCNT and IVF 8-cell embryos.
# The SCNT embryos used for ZGA analysis were generated using oocytes donated by a single healthy person (#64) and dermal fibroblast cells from an AMD patient (DFB-8). SCNT and IVF embryos were cultured up to late 8-cell stage, when the compaction of blastomeres is initiated, then they were treated briefly with acid Tyrode solution to remove zona pellucida. To prepare for the 8-cell SCNT embryo, oocytes from a single oocyte donor, and skin fibroblast cells from a single somatic nuclear donor were used. All the procedures are the same as described in the “Human SCNT procedure and KMD4A mRNA injection” section. Only embryos that reached the late 8-cell stage synchronically 74 hours post activation were collected and used for this experiment.
# For preparation of the control IVF embryos, several donated early 8-cell stage IVF embryos were thawed and cultured for 5-7 hours to allow them to reach late 8-cell stage before being processed. After removal of the zona pellucida, the denuded embryos were washed 3 times in PBS, loaded into RNAse and DNAse free PCR tubes, spin downed, and snap frozen in liquid nitrogen. Then, they were kept at −80° C. until use. As controls, dermal fibroblast cells of somatic nuclear donors were also prepared. Those fibroblast cells were cultured in a 25 cm^2 flask in DMEM 10% FBS, and approximately 10,000 cells/donor were collected, snap frozen, and stored at −80° C. until use.
# Five 8-cell embryos for each group were directly lysed and used for cDNA synthesis using SMART-Seq v4 Ultra Low Input RNA Kit (Clontech). For MEF donor, 10 ng total RNA was used for cDNA synthesis using SMART-Seq v4 Ultra Low Input RNA Kit. After amplification, the cDNA samples were fragmented using Covaris sonicator M220 to an average size of 150 bp (Covaris). Sequencing libraries were made with the fragmented DNA using NEBNext Ultra DNA Library Prep Kit for Illumina according to manufacturer's instruction (New England Biolabs) with different barcodes. For each RNA-seq analysis of hESCs, 1 μg total RNA was used for mRNA purification. Barcoded RNA-seq libraries were generated using NEBNext Ultra Directional RNA Library Prep Kit for Illumina (New England Biolabs). Single end 50 bp sequencing was performed on a HiSeq 2500 sequencer (Illumina). Sequencing reads were mapped to the human genome (hg19) with Tophat2. All programs were performed with default settings (unless otherwise specified). At least 22 million uniquely mapped reads were obtained for each sequencing library, and subsequently assembled into transcripts guided by the reference annotation (Refseq gene models) with Cufflinks v2.0.2. Expression level of each gene was quantified with normalized FPKM (fragments per kilobase of exon per million mapped fragments). Statistical analyses were performed with R (available at: “www.r-project.org/”). Independent 2 group Wilcoxon rank sum tests were used to compare distributions using the wilcox.test function in R. Pearson's r coefficient was calculated using the cor function with default parameters. The hierarchical clustering analysis of the global gene expression pattern in different samples was carried out using heatmap.2 function (gplots package) in R.
substance,measurement,value
"KDM4A mRNA: in vitro transcribed mRNA of full length human KDM4A/JHDM3A cDNA, an H3K9me3 demethylase (SEQ ID NO: 1)",NOC4L Expression level (FPKM),0.61 FPKM
same,NOP58 Expression level (FPKM),55.54 FPKM
same,NUDT9 Expression level (FPKM),1.35 FPKM
same,PAGE5 Expression level (FPKM),1.86 FPKM
same,PDCD11 Expression level (FPKM),1.88 FPKM
same,PDE4DIP Expression level (FPKM),4.04 FPKM
same,PHOSPHO1 Expression level (FPKM),0.23 FPKM
same,PIK3R4 Expression level (FPKM),1.31 FPKM
same,PLBD1 Expression level (FPKM),0.74 FPKM
same,PLD2 Expression level (FPKM),1 FPKM
same,PLVAP Expression level (FPKM),1.63 FPKM
same,POLR3K Expression level (FPKM),109.26 FPKM
same,POTEM Expression level (FPKM),1.96 FPKM
same,PPM1N Expression level (FPKM),0.89 FPKM
same,PPP2CB Expression level (FPKM),1.07 FPKM
same,PRAMEF3 Expression level (FPKM),1.48 FPKM
same,PRAMEF4 Expression level (FPKM),18.29 FPKM
same,PRAMEF6 Expression level (FPKM),14.29 FPKM
same,PRAMEF10 Expression level (FPKM),49.42 FPKM
same,PRAMEF11 Expression level (FPKM),18.18 FPKM
same,PRAMEF17 Expression level (FPKM),0.66 FPKM
same,PRPF39 Expression level (FPKM),3.48 FPKM
same,PTPN22 Expression level (FPKM),1.15 FPKM
same,RAB9A Expression level (FPKM),1.37 FPKM
same,RASA2 Expression level (FPKM),1 FPKM
same,RFK Expression level (FPKM),2.86 FPKM
same,RNU11 Expression level (FPKM),3.75 FPKM
same,RP2 Expression level (FPKM),1.31 FPKM
same,RPF2 Expression level (FPKM),102.42 FPKM
same,RPS6KB2 Expression level (FPKM),0.32 FPKM
same,SAMD8 Expression level (FPKM),4.34 FPKM
same,SCO1 Expression level (FPKM),1.99 FPKM
same,SEPX1 Expression level (FPKM),2.34 FPKM
same,SERTAD1 Expression level (FPKM),7.03 FPKM
same,SFTPD Expression level (FPKM),0.61 FPKM
same,SGCG Expression level (FPKM),1.03 FPKM
same,SGPP1 Expression level (FPKM),1.39 FPKM
same,SHFM1 Expression level (FPKM),21.11 FPKM
same,SIAH1 Expression level (FPKM),88.93 FPKM
same,SNAPC1 Expression level (FPKM),17.7 FPKM
same,SNAR-C3 Expression level (FPKM),98.14 FPKM
same,SNAR-E Expression level (FPKM),2468.68 FPKM
same,SNHG9 Expression level (FPKM),63.59 FPKM
same,SNHG12 Expression level (FPKM),7.02 FPKM
same,SPINK7 Expression level (FPKM),12.41 FPKM
same,SRA1 Expression level (FPKM),5.51 FPKM
same,SSX3 Expression level (FPKM),5.71 FPKM
same,STAG3L2 Expression level (FPKM),2.72 FPKM
same,STAG3L4 Expression level (FPKM),2.35 FPKM
same,STAP2 Expression level (FPKM),0.83 FPKM
same,SUZ12P Expression level (FPKM),1.31 FPKM
same,TAC1 Expression level (FPKM),5.72 FPKM
same,TCEANC2 Expression level (FPKM),2.9 FPKM
same,TCN2 Expression level (FPKM),0.69 FPKM
same,TEN1 Expression level (FPKM),3.43 FPKM
same,THOC5 Expression level (FPKM),5.02 FPKM
same,TIMM10 Expression level (FPKM),25.23 FPKM
same,TMEM41B Expression level (FPKM),19.19 FPKM
same,TMEM92 Expression level (FPKM),0.97 FPKM
same,TMEM159 Expression level (FPKM),8.54 FPKM
same,TRIM39-RPP21 Expression level (FPKM),1.26 FPKM
same,TRIML2 Expression level (FPKM),1.8 FPKM
same,TSEN34 Expression level (FPKM),1.75 FPKM
same,TTC27 Expression level (FPKM),0.56 FPKM
same,TTC28-AS1 Expression level (FPKM),7.79 FPKM
same,UBTFL1 Expression level (FPKM),120.09 FPKM
same,UTP3 Expression level (FPKM),2.98 FPKM
same,UTP23 Expression level (FPKM),3.29 FPKM
same,UTS2 Expression level (FPKM),1.14 FPKM
same,VAMP1 Expression level (FPKM),13.05 FPKM
same,VCX2 Expression level (FPKM),0.24 FPKM
same,VCX Expression level (FPKM),0.23 FPKM
same,VPS54 Expression level (FPKM),3.79 FPKM
same,WDR77 Expression level (FPKM),3.45 FPKM
same,XAGE5 Expression level (FPKM),0.11 FPKM
same,ZCCHC10 Expression level (FPKM),15.69 FPKM
same,ZFYVE19 Expression level (FPKM),4.05 FPKM
same,ZNF92 Expression level (FPKM),21.84 FPKM
same,ZNF100 Expression level (FPKM),3.76 FPKM
same,ZNF174 Expression level (FPKM),1.13 FPKM
same,ZNF208 Expression level (FPKM),1.74 FPKM
same,ZNF254 Expression level (FPKM),1.32 FPKM
same,ZNF273 Expression level (FPKM),4.43 FPKM
same,ZNF280A Expression level (FPKM),84.94 FPKM
same,ZNF326 Expression level (FPKM),2.8 FPKM
same,ZNF345 Expression level (FPKM),1.41 FPKM
same,ZNF486 Expression level (FPKM),2.77 FPKM
same,ZNF487P Expression level (FPKM),3.02 FPKM
same,ZNF625-ZNF20 Expression level (FPKM),1.95 FPKM
same,ZNF625 Expression level (FPKM),1 FPKM
same,ZNF669 Expression level (FPKM),8.14 FPKM
same,ZNF675 Expression level (FPKM),15.04 FPKM
same,ZNF676 Expression level (FPKM),4.61 FPKM
same,ZNF679 Expression level (FPKM),86.94 FPKM
same,ZNF680 Expression level (FPKM),5.58 FPKM
same,ZNF684 Expression level (FPKM),7.21 FPKM
same,ZNF700 Expression level (FPKM),1.86 FPKM
same,ZNF724P Expression level (FPKM),13.16 FPKM
same,ZNF729 Expression level (FPKM),0.94 FPKM
same,ZNF735 Expression level (FPKM),33.19 FPKM
same,ZNF789 Expression level (FPKM),5.2 FPKM
same,ZNF791 Expression level (FPKM),3.79 FPKM
same,ZNF826P Expression level (FPKM),2.07 FPKM
same,ZNHIT6 Expression level (FPKM),3.88 FPKM
